The NIST ThermoML archive (doi:10.1016/j.tca.2004.11.001)

Assay: molar heat capacity at constant pressure; xn = mol fraction of the nth substance listed
Details: 101.33 kPa, Liquid

CCCCCCOCCOCCOCCOCCOCCO [2-(hexyloxytetraethoxy)ethanol] + O
molar heat capacity at constant pressure [J/K/mol]
Details	283 K	288 K	298 K	308 K	318 K	328 K	338 K
x1 = 0.00036	75.88	75.76	75.66	75.64	75.68	75.77	75.85
x1 = 0.00072	76.25	76.13	76.04	76.03	76.07	76.14	76.23
x1 = 0.00106	76.6	76.5	76.43	76.42	76.46	76.53	76.6
x1 = 0.00146	77.04	76.94	76.92	76.95	76.95	76.93	76.96
x1 = 0.00175	77.35	77.33	77.41	77.35	77.25	77.18	77.19
x1 = 0.0018	77.46	77.42	77.48	77.44	77.35	77.28	77.3
x1 = 0.00235	78.13	78.25	78.2	78.06	77.88	77.81	77.83
x1 = 0.00281	78.98	78.99	78.74	78.45	78.27	78.21	78.27
x1 = 0.00324	79.99	79.7	79.24	78.86	78.68	78.63	78.61
x1 = 0.00357	80.51	80.06	79.53	79.18	78.99	78.93	78.99
x1 = 0.00398	81	80.46	79.78	79.43	79.29	79.25	79.27
x1 = 0.00473	81.76	81.26	80.57	80.19	80.01	79.95	79.97
x1 = 0.00503	82.06	81.55	80.85	80.47	80.3	80.24	80.25
x1 = 0.00543	82.41	81.91	81.22	80.85	80.67	80.61	80.57
x1 = 0.00585	82.79	82.27	81.58	81.22	81.05	80.99	81.01
x1 = 0.0063	83.1	82.58	81.9	81.54	81.37	81.31	81.32
x1 = 0.0069	83.54	83.03	82.38	82.04	81.89	81.82	81.83
x1 = 0.00752	84.02	83.53	82.92	82.62	82.49	82.43	82.46
x1 = 0.00819	84.48	84.03	83.46	83.18	83.06	83.02	83.06
x1 = 0.00886	85	84.56	84.02	83.75	83.64	83.61	83.65
x1 = 0.00969	85.51	85.11	84.64	84.42	84.35	84.37	84.46
x1 = 0.0118	87.08	86.76	86.37	86.21	86.16	86.19	86.22
x1 = 0.01312	88	87.75	87.46	87.33	87.3	87.32	87.37
x1 = 0.01647	90.68	90.57	90.49	90.48	90.51	90.58	90.44
x1 = 0.01786	91.44	91.39	91.36	91.4	91.49	91.6	91.72
x1 = 0.01996	92.94	92.97	93.07	93.17	93.26	93.31	93.32
x1 = 0.02247	94.73	94.84	95.04	95.24	95.42	95.55	95.59
x1 = 0.02729	98.3	98.56	99	99.32	99.54	99.68	99.81
x1 = 0.0303	100.51	100.88	101.48	101.9	102.19	102.38	102.52
x1 = 0.03518	103.98	104.48	105.27	105.84	106.24	106.51	106.68
x1 = 0.0397	107.24	107.83	108.77	109.44	109.93	110.24	110.48
x1 = 0.04518	111.01	111.69	112.79	113.6	114.17	114.53	114.82
x1 = 0.05201	115.67	116.48	117.75	118.68	119.37	119.87	120.21
x1 = 0.06018	121.38	122.34	123.83	124.98	125.84	126.57	126.88
x1 = 0.07563	131.77	132.81	134.56	135.97	137.1	137.96	138.56
x1 = 0.09777	146.15	147.28	149.31	151.06	152.51	153.69	154.59
x1 = 0.1356	170.77	171.98	174.29	176.42	178.34	180.03	181.46
x1 = 0.1978	210.08	211.39	213.91	216.46	218.95	221.31	223.41
x1 = 0.3066	278.42	279.68	282.35	285.3	288.41	291.49	294.37
x1 = 0.6924	513.75	515.35	519.97	524.59	529.47	534.66	538.64
x1 = 1	686.95	689.21	693.95	698.98	704.91	711.23	716.97

O [water] + CCCCCCOCCOCCOCCOCCOCCO
x2 = 0
Details	molar heat capacity at constant pressure [J/K/mol]
283 K	75.53
288 K	75.41
298 K	75.3
308 K	75.28
318 K	75.3
328 K	75.35
338 K	75.43
